# Values of other authors in US11285148B1 (King Abdulaziz University, priority 2021, dated 2022).
# System: yeast isolates obtained from cases of keratitis
compound,measurement,value
"CC(=O)N1CCN(c2ccc(OCC3COC(Cn4ccnc4)(c4ccc(Cl)cc4Cl)O3)cc2)CC1 (stereo not shown) [KET, Ketoconazole]",Minimum inhibitory concentration,0.015 to 0.125 µg/mL
